Experimental data from article PMC7617978, “Anti-trypanosomal quinazolines targeting lysyl-tRNA synthetases show partial efficacy in a mouse model of acute Chagas disease” (Science translational medicine, 2025).
Where two headings read alike, the source gives them in different places.

Experiments:
[1] = tested on: T. cruzi (Sylvio X10/7A1 strain) epimastigote; assay: microbe, parasite or virus in culture; type: cell-based; conditions: for EC50: Trypanosoma cruzi; for Fold-shift (relative to WT): epimastigote
T. b. brucei BSF = assay: Drug sensitivity assay, T. b. brucei bloodstream forms; type: cell-based; conditions: for EC50: Trypanosoma brucei
CYP2C19 = CYP2C19 (Homo sapiens, UniProt P33261); assay: In vitro CYP inhibition, 2C19; type: in vitro ADME
Sequence of CYP2C19 (P33261 whole entry, species assumed, canonical isoform): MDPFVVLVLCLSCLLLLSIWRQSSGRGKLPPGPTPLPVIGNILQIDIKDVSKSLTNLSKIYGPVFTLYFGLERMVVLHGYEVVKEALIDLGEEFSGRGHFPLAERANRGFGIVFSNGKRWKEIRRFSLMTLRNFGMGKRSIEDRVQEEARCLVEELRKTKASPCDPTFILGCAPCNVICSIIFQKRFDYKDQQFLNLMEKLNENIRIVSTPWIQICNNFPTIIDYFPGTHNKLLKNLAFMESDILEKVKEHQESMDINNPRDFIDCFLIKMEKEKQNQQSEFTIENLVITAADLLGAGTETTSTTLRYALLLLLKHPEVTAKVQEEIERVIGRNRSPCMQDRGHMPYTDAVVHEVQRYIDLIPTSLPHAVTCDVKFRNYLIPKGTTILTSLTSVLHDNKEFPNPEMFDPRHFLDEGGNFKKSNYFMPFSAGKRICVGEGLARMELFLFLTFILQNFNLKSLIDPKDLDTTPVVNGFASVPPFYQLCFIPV
Method: (§1) Compounds were screened for CYP inhibition activity using the protocol established by TCG Lifesciences (India). The activity of five CYP450 isoforms: 1A2; 2C9; 2D6, 3A4; and 2C19 was monitored in the presence of test or control (miconazole) compounds at 10 µM. Reactions were terminated after 10 min (30 min for CYP2C19) by the addition of acetonitrile, centrifuged and analysed via LC-MS/MS. […]

[2] = tested on: L. donovani (LdBOB) promastigote; assay: Drug sensitivity assay, L. donovani promastigotes; type: cell-based; conditions: for EC50: Leishmania donovani
CYP2C9 = CYP2C9 (Homo sapiens, UniProt P11712); assay: In vitro CYP inhibition, 2C9; type: in vitro ADME
Sequence of CYP2C9 (P11712 whole entry): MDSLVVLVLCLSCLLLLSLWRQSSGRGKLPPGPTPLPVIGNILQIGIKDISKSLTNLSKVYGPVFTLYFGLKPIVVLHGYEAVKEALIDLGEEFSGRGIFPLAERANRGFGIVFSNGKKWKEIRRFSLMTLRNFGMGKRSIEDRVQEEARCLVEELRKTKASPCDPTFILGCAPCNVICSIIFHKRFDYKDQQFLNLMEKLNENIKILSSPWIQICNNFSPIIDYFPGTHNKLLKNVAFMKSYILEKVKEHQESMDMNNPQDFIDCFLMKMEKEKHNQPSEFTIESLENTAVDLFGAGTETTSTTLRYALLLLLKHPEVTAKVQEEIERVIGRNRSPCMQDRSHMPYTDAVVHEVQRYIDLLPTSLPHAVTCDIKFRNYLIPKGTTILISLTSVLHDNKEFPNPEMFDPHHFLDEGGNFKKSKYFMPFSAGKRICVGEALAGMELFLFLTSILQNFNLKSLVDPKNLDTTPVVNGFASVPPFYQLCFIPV
Method: as §1

CYP1A2 = CYP1A2 (Homo sapiens, UniProt P05177); assay: In vitro CYP inhibition, 1A2; type: in vitro ADME
Sequence of CYP1A2 (P05177 whole entry): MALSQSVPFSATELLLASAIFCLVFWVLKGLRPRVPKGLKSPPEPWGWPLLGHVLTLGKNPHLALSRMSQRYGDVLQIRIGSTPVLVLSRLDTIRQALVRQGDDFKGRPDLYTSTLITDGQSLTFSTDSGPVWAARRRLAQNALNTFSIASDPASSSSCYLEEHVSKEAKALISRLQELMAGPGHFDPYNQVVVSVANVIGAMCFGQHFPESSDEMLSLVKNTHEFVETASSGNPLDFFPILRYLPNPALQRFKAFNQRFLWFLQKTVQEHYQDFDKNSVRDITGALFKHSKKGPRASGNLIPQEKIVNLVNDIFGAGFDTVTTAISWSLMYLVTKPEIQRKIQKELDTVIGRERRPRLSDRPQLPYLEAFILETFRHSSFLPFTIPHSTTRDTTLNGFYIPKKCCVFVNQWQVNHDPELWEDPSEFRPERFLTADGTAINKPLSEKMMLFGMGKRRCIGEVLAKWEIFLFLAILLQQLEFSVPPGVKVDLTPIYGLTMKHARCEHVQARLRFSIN
Method: as §1

[3] = tested on: T. cruzi (Tulahuen strain) intracellular amastigote (in L6 cells); assay: Drug sensitivity assay, T. cruzi (Tulahuen)-infected L6 rat skeletal myoblasts; type: cell-based; conditions: Trypanosoma cruzi
Method: T. cruzi epimastigotes of the Silvio strain (MHOM/BR/78/Silvio; clone X10/7A) were maintained at 28°C in RPMI 1640 medium (Merck) supplemented with trypticase peptone (4.9 mg/ml), HEPES (20 mM), haemin (20 μg/ml), and foetal bovine serum (FBS, 10%), as previously described ([29]). T. cruzi metacyclic trypomastigotes were obtained and maintained, as previously described ([29]). Briefly, late-log epimastigotes were seeded at 10^6 cells/ml in RTH/FBS and differentiated into trypomastigotes after 7 days at 28°C. Vero cells were infected with trypomastigotes for 12 hours in Dulbecco modified Eagle medium (DMEM) supplemented with 5% FBS, at 37°C in the presence of 5% CO2. Infected Vero cells were washed 3× with DMEM/FBS to remove extracellular parasites, and medium was replaced every two days until trypomastigotes re-emerged. Three rounds of infection were performed before trypomastigotes were harvested for drug sensitivity assays. For drug sensitivity assays carried out at the Swiss Tropical Institute, a T. cruzi cell line (Tulahuen C2C4) expressing the β-galactosidase gene LacZ was propagated in L6 rat skeletal myoblasts (ATCC CRL-1458) as previously described ([37]).
Drug sensitivity assays with T. cruzi (Tulahuen)-infected L6 rat skeletal myoblasts were carried out as previously described ([37]).

[4] = Metabolic stability in mouse liver microsomes; type: in vitro ADME; conditions: 1 µM, NADPH
Method: The metabolic stability of key compounds was assessed using the protocol established by TCG
Lifesciences (India). Briefly, mouse liver microsomes (MLM) were incubated with test
compounds or controls (atenolol, propranolol, diclofenac and verapamil) at 1 µM. Reactions
were initiated by the addition of NADPH and terminated by the addition of acetonitrile. […]

HepG2 = assay: Drug sensitivity assay, HepG2 cells; type: cell-based
Method: Human HepG2 cells (ECACC 85011430) were cultivated at 37°C in minimal essential medium (MEM) supplemented with GlutaMax (1×, Thermo Fisher), 10% (v/v) fetal bovine serum (FBS), MEM non-essential amino acids (1×, Sigma) and in the presence of 5% CO2, as previously described ([29]). Cells were passaged twice weekly through detachment of adherent cells with trypsin/EDTA (Sigma) and subsequent dilution into fresh medium.
The relative potency of test compounds against T. cruzi epimastigotes ([29]), T. b. brucei bloodstream forms ([41]), T. b. rhodesiense bloodstream forms ([42]), L. donovani promastigotes ([43]) and Hep G2 cells ([29]) were established as previously described. The potency of test compounds on intracellular T. cruzi (Sylvio, X10/7A1) were determined in 96-well plates as previously described ([29]).

T. b. rhodesiense = assay: Drug sensitivity assay, T. b. rhodesiense bloodstream forms; type: cell-based; conditions: Trypanosoma brucei, read-out: EC50 value
hERG channel = target: T1, hERG channel (Homo sapiens, UniProt Q12809); assay: In vitro hERG fluorescence polarization assay; type: binding; conditions: read-out: hERG inhibition (IC50 value)
T1 construct: purchased Invitrogen
T1 sequence (Q12809 whole entry): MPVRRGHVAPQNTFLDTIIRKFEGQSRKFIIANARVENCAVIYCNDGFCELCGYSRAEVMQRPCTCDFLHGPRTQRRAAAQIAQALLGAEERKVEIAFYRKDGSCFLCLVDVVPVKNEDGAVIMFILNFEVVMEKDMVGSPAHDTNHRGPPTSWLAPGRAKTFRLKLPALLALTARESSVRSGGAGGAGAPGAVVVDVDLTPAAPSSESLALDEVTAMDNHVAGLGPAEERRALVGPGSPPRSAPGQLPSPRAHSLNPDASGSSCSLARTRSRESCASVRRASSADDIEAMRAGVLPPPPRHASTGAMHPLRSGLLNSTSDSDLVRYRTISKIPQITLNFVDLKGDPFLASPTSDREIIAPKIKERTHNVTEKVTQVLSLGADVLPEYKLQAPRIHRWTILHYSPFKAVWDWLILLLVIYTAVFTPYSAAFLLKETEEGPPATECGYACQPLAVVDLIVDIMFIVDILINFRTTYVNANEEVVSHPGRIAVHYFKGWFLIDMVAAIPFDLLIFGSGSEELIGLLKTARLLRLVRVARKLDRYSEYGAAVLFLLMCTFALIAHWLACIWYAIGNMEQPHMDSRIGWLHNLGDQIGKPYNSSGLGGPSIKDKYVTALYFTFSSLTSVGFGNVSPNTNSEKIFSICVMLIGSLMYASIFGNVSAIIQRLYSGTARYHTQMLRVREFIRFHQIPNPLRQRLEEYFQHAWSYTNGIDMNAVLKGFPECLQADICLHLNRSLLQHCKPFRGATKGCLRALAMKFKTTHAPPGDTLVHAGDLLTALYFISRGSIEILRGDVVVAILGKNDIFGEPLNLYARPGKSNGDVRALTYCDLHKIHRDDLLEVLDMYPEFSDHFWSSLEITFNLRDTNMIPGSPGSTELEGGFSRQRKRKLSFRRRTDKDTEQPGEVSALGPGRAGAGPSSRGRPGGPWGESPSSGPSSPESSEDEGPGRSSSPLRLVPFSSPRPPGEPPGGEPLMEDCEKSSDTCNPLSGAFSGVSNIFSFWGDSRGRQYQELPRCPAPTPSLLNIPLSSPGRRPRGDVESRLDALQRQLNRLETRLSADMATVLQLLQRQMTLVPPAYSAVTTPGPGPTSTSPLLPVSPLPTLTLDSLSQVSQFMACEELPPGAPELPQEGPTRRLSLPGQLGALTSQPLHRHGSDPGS
Method: In vitro hERG fluorescence polarization assay
Compounds were assessed for potential hERG channel inhibition using the Predictor® hERG Fluorescence Polarization Assay Kit (Invitrogen), as per manufacturer’s instructions.
Compounds were screened with test compounds at concentrations ranging from 0.0003 – 30
µM. Fluorescence polarization was measured using EnVision plate reader fitted with polarized filters (excitation: 531 nm; emission: 595 nm). IC50 values were determined using GraphPad

[5] = tested on: L. donovani (MHOM-ET-67/L82) axenic amastigote; assay: Drug sensitivity assay, L. donovani axenic amastigotes; type: cell-based; conditions: Leishmania donovani, WT
[6] = tested on: T. cruzi (Sylvio X10/7A1 strain) intracellular amastigote (in Vero cells); assay: microbe, parasite or virus in culture; type: cell-based; conditions: for EC50: Trypanosoma cruzi, Vero; for Fold-shift (relative to WT): intracellular amastigote in Vero cells
[7] = read-out: EC50 value, KRS1 OE (overexpressing), epimastigote
[8] = read-out: EC50 value, KRS1 S319L, epimastigote
[9] = read-out: EC50 value, WT, epimastigote
[10] = KRS1 OE, BSF, read-out: EC50 value
[11] = read-out: EC50 value, KRS1 S319L (as printed in Table S1), BSF
[12] = KRS1 OE, promastigote, read-out: EC50 value
[13] = WT, promastigote, read-out: EC50 value
[14] = read-out: EC50 value, KRS1 S324L, promastigote
[15] = read-out: EC50 value, KRS1 OE, intracellular amastigote in Vero cells
[16] = read-out: EC50 value, KRS1 S319L, intracellular amastigote in Vero cells
[17] = read-out: EC50 value, WT, intracellular amastigote in Vero cells

| Structure (SMILES) | EC50 [1, 7] [nM] | EC50 [1, 8] [nM] | EC50 [1, 9] [nM] | EC50 (T. b. brucei BSF; [10]) [nM] | EC50 (T. b. brucei BSF; WT, BSF, read-out: EC50 value) [nM] | EC50 (T. b. brucei BSF; [11]) [nM] | inhibition at 30 min, 10 µM (CYP2C19) [%] | EC50 [2, 12] [nM] | EC50 [2, 13] [nM] | EC50 [2, 14] [nM] | inhibition at 10 min, 10 µM (CYP2C9) [%] | inhibition at 10 min, 10 µM (CYP1A2) [%] | Mouse liver microsome stability [4] [µL/min/mg] | IC50 (hERG channel) [nM] | EC50 [5] [nM] | EC50 [6, 15] [nM] | EC50 [6, 16] [nM] | EC50 [6, 17] [nM] | also measured |
| --- | --- | --- | --- | --- | --- | --- | --- | --- | --- | --- | --- | --- | --- | --- | --- | --- | --- | --- | --- |
| Cc1nc(N)c2c(F)c(F)c(NC3CCCC3)c(F)c2n1 [DMU371, N7-Cyclopentyl-5,6,8-trifluoro-2-methylquinazoline-4,7-diamine] | 624 ± 14 | 326 ± 26 | 63 ± 2.4 | 4250 ± 170 | 607 ± 9 | 1870 ± 71 | 6.1 ± 1.3 | 1860 ± 63 | 524 ± 9 | 1740 ± 49 | 8.6 ± 0.6 | 74.8 ± 0.5 | > 500 | 7600 ± 1300 | 5320 ± 2780 | 888 ± 117 | 589 ± 57 | 205 ± 24 | EC50 ([3]; TULAHUEN, L6, read-out: EC50 value): 233 ± 86 nM; EC50 (HepG2; Homo sapiens, HepG2, read-out: EC50 value): 5820 ± 500 nM; EC50 (T. b. rhodesiense): 1090 ± 420 nM |
| Cc1nc(N)c2c(F)c(F)c(SC3CCCCC3)c(F)c2n1 [DMU759, 7-(Cyclohexylthio)-5,6,8-trifluoro-2-methylquinazolin-4-amine] | 134 ± 3 | 565 ± 41 | 14 ± 0.3 | 1060 ± 33 | 112 ± 0.8 | 6480 ± 360 | 12.8 ± 2.8 | 1470 ± 56 | 115 ± 0.1 | 1320 ± 32 | 7.9 ± 0.8 | 61.5 ± 0.9 | > 500 | 12200 ± 1100 | 284 ± 20 | 121 ± 19 | 1540 ± 130 | 16 ± 1 | Fold-shift (relative to WT) ([1]; KRS1 OE): 10 fold; Fold-shift (relative to WT) ([1]; KRS1 S319L): 41 fold; resistance conferred by mutation of a single amino acid in the KRS1 active site ([1]; in vitro, parasite not stated (discussion)): > 20 fold; Fold-shift (relative to WT) (T. b. brucei BSF; KRS1 OE, BSF): 9 fold; Fold-shift (relative to WT) (T. b. brucei BSF; KRS1 serine-to-leucine mutant (S323L; printed S319L in Table S1), BSF): 58 fold; Fold-shift (relative to WT) ([2]; KRS1 OE, promastigote): 13 fold; Fold-shift (relative to WT) ([2]; KRS1 S324L, promastigote): 12 fold; EC50 ([3]; WT Tulahuen strain, intracellular amastigote in L6 cells, read-out: EC50 value): 18 ± 7 nM; EC50 (HepG2; Homo sapiens, HepG2; read-out: EC50 value): 16900 ± 5380 nM; EC50 (T. b. rhodesiense; WT, BSF): 313 ± 183 nM; Fold-shift (relative to WT) ([6]; KRS1 OE): 8 fold; Fold-shift (relative to WT) ([6]; KRS1 S319L): 97 fold |
